The pIC50 is the negative decadic logarithm of the IC50, by convention in mol/L.

pIC50: −log10 of the molar value. A value given as a limit tells only on which side of the number the result lay.

One assay deals with MCF7. The assay can be described thus: Cytotoxicity against human MCF7 cells assessed as inhibition of cell growth measured after 72 hrs. The assay is classed as functional, cell-based. Particulars: MCF7, 72 h.
The subject of a further assay is HT-29. The assay is described as follows: Cytotoxicity against human HT-29 cells assessed as inhibition of cell growth measured after 72 hrs. The assay is classed as functional, cell-based. As to conditions: HT-29, 72 h.
For the next assay, the system named is HL-60. The assay can be described thus: Cytotoxicity against human HL-60 cells assessed as inhibition of cell growth measured after 72 hrs. The assay is classed as functional, cell-based. Particulars: HL-60, 72 h.
The test system of a further assay is CCD-841CoN. The assay is described as follows: Cytotoxicity against human CCD-841CoN cells assessed as inhibition of cell growth measured after 72 hrs. The class given is cell-based.
For another assay, the system named is A549. The assay is described as follows: Cytotoxicity against human A549 cells assessed as inhibition of cell growth measured after 72 hrs. The class given is functional, cell-based. As to conditions: A549, 72 h.

As for `CCc1c2c(nc3ccc(O)c(CN4CCC4)c13)-c1cc3c(c(=O)n1[C@@H]2CO)COC(=O)[C@]3(O)CC`, the pIC50 in the assay with MCF7 is 5.17; in the assay with HT-29 it was 5.60; with HL-60, 6.95; with CCD-841CoN it was under 3.00; in the assay on A549 it was 5.93.
Consider `CCc1c2c(nc3ccc(O)cc13)-c1cc3c(c(=O)n1[C@@H]2CN1CCCC1)COC(=O)[C@]3(O)CC`, for which the pIC50 in the assay with MCF7 was 6.04; with HT-29 it was 6.31; in the assay with HL-60, 8.15; with CCD-841CoN, 4.66; in the assay with A549, 6.57.
The like results for `CCc1c2c(nc3ccc(O)cc13)-c1cc3c(c(=O)n1[C@H]2CN1CCCC1)COC(=O)[C@]3(O)CC` were, in that order, 6.09, 6.22, 7.96, 4.61 and 6.69.
In the case of `CCc1c2c(nc3ccc(OC(=O)N4CCC(N5CCCCC5)CC4)cc13)-c1cc3c(c(=O)n1C2)COC(=O)[C@]3(O)CC` [IRINOTECAN], the pIC50 is 4.85 in the assay with MCF7; 5.16 with HT-29; 5.37 in the assay with HL-60; 4.04 with CCD-841CoN; 4.57 with A549.
As to `C=c1c2c(CC)c3cc(O)ccc3nc2c2cc3c(c(=O)n12)COC(=O)[C@]3(O)CC`, the pIC50 with HT-29 is 6.82; with CCD-841CoN, 4.04; in the assay on A549, 5.71.
Regarding `CCc1c2c(nc3ccc(O)cc13)-c1cc3c(c(=O)n1[C@@H]2CO)COC(=O)[C@]3(O)CC`, the pIC50 in the assay with MCF7 was 4.83; in the assay on HT-29, 4.83; in the assay on HL-60, 5.72; in the assay on CCD-841CoN it was 4.21; with A549 it was 5.18.
For the compound `CCc1c2c(nc3ccc(O)c(CN4CCC4)c13)-c1cc3c(c(=O)n1[C@H]2CO)COC(=O)[C@]3(O)CC`, the pIC50 is 4.95 in the assay on MCF7; 5.16 in the assay on HT-29; 6.48 in the assay on HL-60; under 3.00 with CCD-841CoN; 5.28 in the assay on A549.
The like results for `CCc1c2c(nc3ccc(O)c(N(C)CCO)c13)-c1cc3c(c(=O)n1C2)COC(=O)[C@]3(O)CC` were, in that order, 5.92, 6.82, 8.05, 4.44 and 6.39.
The like results for `CCc1c2c(nc3ccc(O)cc13)-c1cc3c(c(=O)n1C2)COC(=O)[C@]3(O)CC` [7-ETHYL-10-HYDROXYCAMPTOTHECIN] were, in that order, 6.18, 7.70, 8.70, 5.30 and 7.55.
`CCc1c2c(nc3ccc(O)c(CO)c13)-c1cc3c(c(=O)n1C2)COC(=O)[C@]3(O)CC`: the negative logarithm of the IC50 (pIC50) in the assay on HT-29 is 6.17; in the assay on CCD-841CoN it was under 3.00; in the assay with A549, 4.96.
Consider `CCc1c2c(nc3ccc(O)cc13)-c1cc3c(c(=O)n1[C@H]2CO)COC(=O)[C@]3(O)CC`, for which the negative-log IC50 (pIC50) with MCF7 is 4.80; in the assay with HT-29 it was 5.02; with HL-60, 6.14; in the assay with CCD-841CoN, 3.42; in the assay on A549, 5.37.

The values are drawn from ChEMBL document CHEMBL4811283, “New camptothecin derivatives for generalized oncological chemotherapy: Synthesis, stereochemistry and biology” (Bioorg Med Chem Lett, 2021).
